Consider 6 compounds from patent publication US5567734A, “Phenyl-substituted alkylcarboguanidides carrying perfluoroalkyl groups, a process for their preparation, their use as a medicament or a diagnostic agent, and a medicament containing them” (priority 1994, dated 1996).

Series [1] concerns the target T1, Na^+ /H^+ exchanger of rabbit erythrocytes (Oryctolagus cuniculus, UniProt P23791).
T1 construct: endogenous in cells; host or cells: erythrocytes in heparinised blood of cholesterol-fed New Zealand White rabbits (Ivanovas)
Briefly: Inhibition of the Na^+ /H^+ exchanger of rabbit erythrocytes (Na^+ influx by flame photometry). It counts as cell-based, rabbit (New Zealand White). The note with it: pH 7.4, 37° C., hyperosmolar salt/sucrose medium, cholesterol-fed rabbits, read-out: IC 50, Na^+ /H^+ -exchanger inhibition. An excerpt: Inhibition of the Na^+ /H^+ exchanger of rabbit erythrocytes:
New Zealand White rabbits (Ivanovas) were given a standard diet containing 2% cholesterol for 6 weeks in order to activate Na^+ /H^+ exchange and thus render it possible to determine the Na^+ influx into the erythrocytes via Na^+ /H^+ exchange by flame photometry. The blood was removed from the aural arteries and rendered incoagulable using 25 IU/ml potassium heparin. A portion of each sample was used for determining, in duplicate, the hematocrit by centrifugation. Aliquots of in each case 100 μl were used for measuring the initial content of Na^+ in the erythrocytes.
In order to determine the amiloride-sensitive sodium influx, 100 μl of each blood sample were incubated, at pH 7.4 and 37° C., in in each case 5 ml of a hyperosmolar salt/sucrose medium (mmol/l:140 NaCl, 3 KCl, 150 sucrose, 0.1 ouabain, 20 tris(hydroxymethyl)aminomethane). After that, the erythrocytes were washed three times with ice-cold MgCl2 /ouabain solution (mmol/l: 112 MgCl2, 0.1 ouabain), and haemolyzed in 2.0 ml of distilled water. The intracellular content of sodium was determined by flame photometry.
The net influx of Na^+ was calculated from the difference between the initial sodium values and the sodium content of the erythrocytes after incubation. The amiloride-inhibitable sodium influx was given by the difference in the sodium content of the erythrocytes after incubation with and without 3×10^-4 mol/l amiloride. The same procedure was employed for the compounds according to the invention.

The next series concerns rat hearts. The note with it: isolated rat hearts; cited from earlier work.
The subject of series [2] is disturbances of cardiac rhythm. The note with it: literature; cited from earlier work.

Structures can show the parent of a compound that is named as a salt.

T1 sequence (P23791 whole entry): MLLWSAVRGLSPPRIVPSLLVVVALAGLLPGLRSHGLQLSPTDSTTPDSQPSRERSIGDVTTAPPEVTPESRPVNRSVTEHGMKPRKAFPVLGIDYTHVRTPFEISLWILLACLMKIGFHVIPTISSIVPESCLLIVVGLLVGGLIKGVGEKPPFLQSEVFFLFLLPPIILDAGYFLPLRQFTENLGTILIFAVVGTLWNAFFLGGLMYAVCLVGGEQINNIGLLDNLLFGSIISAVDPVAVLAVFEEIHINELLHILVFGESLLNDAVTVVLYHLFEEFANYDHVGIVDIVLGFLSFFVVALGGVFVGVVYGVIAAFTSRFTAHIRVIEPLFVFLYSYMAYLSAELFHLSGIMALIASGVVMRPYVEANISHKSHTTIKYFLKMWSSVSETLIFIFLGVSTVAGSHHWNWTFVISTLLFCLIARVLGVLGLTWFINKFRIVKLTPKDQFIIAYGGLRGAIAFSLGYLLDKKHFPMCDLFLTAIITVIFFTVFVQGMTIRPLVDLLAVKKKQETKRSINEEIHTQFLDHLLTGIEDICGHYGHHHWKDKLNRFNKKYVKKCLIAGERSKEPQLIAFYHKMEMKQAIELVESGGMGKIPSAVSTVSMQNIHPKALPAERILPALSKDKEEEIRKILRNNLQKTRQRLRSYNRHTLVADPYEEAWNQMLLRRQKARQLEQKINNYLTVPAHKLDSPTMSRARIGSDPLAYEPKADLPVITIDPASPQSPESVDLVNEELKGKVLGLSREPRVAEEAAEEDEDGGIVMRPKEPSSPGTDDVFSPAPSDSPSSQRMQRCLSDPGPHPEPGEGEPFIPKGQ

Consider `NC(N)=NC(=O)CCc1ccccc1C(F)(F)F` [Example 2, 3-(2-Trifluoromethylphenyl)propionoguanidide], for which, in series [1], the IC50 amounted to 500 nM.
With `N=C(N)NC(=O)c1nc(Cl)c(N)nc1N` [amiloride], the “suppression of artificially induced ventricular fibrillation” value with rat hearts is on record as “completely suppress”. In series [2], the antiarrhythmic effect entry is given as “only weakly expressed”; the “side effects when treating disturbances of cardiac rhythm” value was “hypotensive and saluretic effects”.
For the compound `CC(Cc1cccc(C(F)(F)F)c1)C(=O)N=C(N)N` (racemic) [Example 5, 2-Methyl-3-(3-trifluoromethylphenyl)propionoguanidide hydrochloride], the IC50 in series [1] is 50 nM.
For the compound `CCN(c1nc(N)c(C(=O)NC(=N)N)nc1Cl)C(C)C` [ethylisopropyl amiloride, Ethylisopropyl amiloride], the “potency relative to amiloride, ventricular fibrillation” value in the series on rat hearts is listed as “even more potent than amiloride”.
For the compound `NC(N)=NC(=O)CCc1cccc(C(F)(F)F)c1` [Example 1, 3-(3-Trifluoromethylphenyl)propionoguanidide], in series [1], the IC50 amounted to 600 nM.
Take `NC(N)=NC(=O)CCc1cccc(OC(F)(F)F)c1` [Example 3, 3-(3-Trifluoromethoxyphenyl)propionoguanidide hydrochloride]: the IC50 in series [1] was found to be 700 nM.
